Results published in US8889874B2, “Imidazolone-chalcone derivatives as potential anticancer agent and process for the preparation thereof” (Council of Scientific and Industrial Research, priority 2010, dated 2014).
Like-named read-outs stand apart in the source and are kept apart here.

Assays:
Format in all cases: cell-based, human
[1] = tested on: UACC-257 (melanoma); experiment: NCI anticancer screen, SRB assay, 48 h; details: Homo sapiens
Procedure, shortened: (§1)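 Sulforhodamine B protein assay read cell growth after 48 h of continuous compound exposure. Dose-response curves per cell line used at least five 10-fold-diluted concentrations, within a panel of fifty-three human lines from nine tumour types.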

[2] = tested on: HCT-15 (colon); experiment: NCI anticancer screen, SRB assay, 48 h; details: Homo sapiens
Procedure, shortened: as §1

[3] = tested on: HCC-2998 (colon); experiment: NCI anticancer screen, SRB assay, 48 h; details: Homo sapiens
Procedure, shortened: as §1

[4] = tested on: NCI-H226 (non-small cell lung); experiment: NCI anticancer screen, SRB assay, 48 h; details: Homo sapiens
Procedure, shortened: as §1

[5] = tested on: OVCAR-4 (ovarian); experiment: NCI anticancer screen, SRB assay, 48 h; details: Homo sapiens
Procedure, shortened: as §1

[6] = tested on: HCT-116 (colon); experiment: NCI anticancer screen, SRB assay, 48 h; details: Homo sapiens
Procedure, shortened: as §1

[7] = tested on: U251 (CNS); experiment: NCI anticancer screen, SRB assay, 48 h; details: Homo sapiens
Procedure, shortened: as §1

[8] = tested on: MDA-MB-435 (melanoma); experiment: NCI anticancer screen, SRB assay, 48 h; details: Homo sapiens
Procedure, shortened: as §1

[9] = tested on: TK-10 (renal); experiment: NCI anticancer screen, SRB assay, 48 h; details: Homo sapiens
Procedure, shortened: as §1

[10] = tested on: TD-47D (breast); experiment: NCI anticancer screen, SRB assay, 48 h; details: Homo sapiens
Procedure, shortened: as §1

[11] = tested on: CAKI-1 (renal); experiment: NCI anticancer screen, SRB assay, 48 h; details: Homo sapiens
Procedure, shortened: as §1

[12] = tested on: SN12C (renal); experiment: NCI anticancer screen, SRB assay, 48 h; details: Homo sapiens, SN12C
Procedure, shortened: as §1

[13] = tested on: NCI/ADR-RES (ovarian); experiment: NCI anticancer screen, SRB assay, 48 h; details: Homo sapiens, NCI/ADR-RES
Procedure, shortened: as §1

[14] = tested on: SK-MEL-5 (melanoma); experiment: NCI anticancer screen, SRB assay, 48 h; details: Homo sapiens
Procedure, shortened: as §1

[15] = tested on: SNB-19 (CNS); experiment: NCI anticancer screen, SRB assay, 48 h; details: Homo sapiens
Procedure, shortened: as §1

[16] = tested on: RPMI-8226 (leukemia cell line); experiment: NCI anticancer screen, SRB assay, 48 h; details: Homo sapiens
Procedure, shortened: as §1

[17] = tested on: A549/ATCC (non-small cell lung); experiment: NCI anticancer screen, SRB assay, 48 h; details: Homo sapiens
Procedure, shortened: as §1

[18] = tested on: Prostate cancer cell lines; experiment: NCI anticancer screen, SRB assay, panel summary
Procedure, shortened: as §1

[19] = tested on: CNS cancer cell lines; experiment: NCI anticancer screen, SRB assay, panel summary; details: for GI50: Homo sapiens
Procedure, shortened: as §1

[20] = tested on: Breast cancer cell lines; experiment: NCI anticancer screen, SRB assay, panel summary; details: Homo sapiens
Procedure, shortened: as §1

[21] = tested on: Melanoma cancer cell lines; experiment: NCI anticancer screen, SRB assay, panel summary; details: for GI50: Homo sapiens
Procedure, shortened: as §1

[22] = tested on: Ovarian cancer cell lines; experiment: NCI anticancer screen, SRB assay, panel summary; details: Homo sapiens
Procedure, shortened: as §1

[23] = tested on: Leukemia cancer cell lines; experiment: NCI anticancer screen, SRB assay, panel summary; details: Homo sapiens
Procedure, shortened: as §1

[24] = tested on: Renal cancer cell lines; experiment: NCI anticancer screen, SRB assay, panel summary; details: Homo sapiens
Procedure, shortened: as §1

[25] = tested on: Non-small cell lung cancer cell lines; experiment: NCI anticancer screen, SRB assay, panel summary; details: Homo sapiens
Procedure, shortened: as §1

[26] = tested on: Colon cancer cell lines; experiment: NCI anticancer screen, SRB assay, panel summary; details: for GI50: Homo sapiens
Procedure, shortened: as §1

[27] = 48 h exposure, SRB, read-out: GI50
[28] = read-out: pGI50 (-log of molar concentration causing 50% inhibition of net cell growth) (converted)

SMILES: COc1cc(/C=C/C(=O)c2cccc(-n3cc(-c4ccccc4)[nH]c3=O)c2)cc(OC)c1OC [5a, 4-phenyl-1-3-[(E)-3-(3,4,5-trimethoxyphenyl)-2-propenoyl]phenyl-2,3-dihydro-1H-2-imidazolone]
- GI50 [1, 27]: 1.52 µM
- GI50 [1, 28]: 1.51 µM
- GI50 [2, 27]: 1.13 µM
- GI50 [2, 28]: 1.12 µM
- GI50 [3, 27]: 1.26 µM
- GI50 [3, 28]: 1.26 µM
- GI50 [4, 27]: 14.6 µM
- GI50 [4, 28]: 14.5 µM
- GI50 [5, 27]: 1.88 µM
- GI50 [5, 28]: 1.86 µM
- GI50 [6, 27]: 0.33 µM
- GI50 [6, 28]: 0.331 µM
- GI50 ([7]; U-251, 48 h exposure, SRB, read-out: GI50): 0.63 µM
- GI50 ([7]; U-251, read-out: pGI50 (-log of molar concentration causing 50% inhibition of net cell growth) (converted)): 0.631 µM
- GI50 [8, 27]: 1.2 µM
- GI50 [8, 28]: 1.2 µM
- GI50 [9, 27]: 3.02 µM
- GI50 [9, 28]: 3.02 µM
- GI50 [10, 27]: 2.19 µM
- GI50 [10, 28]: 2.19 µM
- GI50 [11, 27]: 1.75 µM
- GI50 [11, 28]: 1.74 µM
- GI50 ([12]; SN 12C, read-out: pGI50 (-log of molar concentration causing 50% inhibition of net cell growth) (converted)): 2.09 µM
- GI50 [12, 27]: 2.09 µM
- GI50 ([13]; NCl/ADR-RES, 48 h exposure, SRB, read-out: GI50): 1.1 µM
- GI50 [13, 28]: 1.1 µM
- GI50 [14, 27]: 1.4 µM
- GI50 [14, 28]: 1.41 µM
- GI50 [15, 27]: 2.35 µM
- GI50 [15, 28]: 2.34 µM
- GI50 [16, 27]: 0.62 µM
- GI50 [16, 28]: 0.617 µM
- GI50 [17, 27]: 4.03 µM
- GI50 [17, 28]: 4.07 µM
- GI50 ([18]; Homo sapiens, log of concentration in mol/L causing 50% inhibition of net cell growth, read-out: mean graph midpoint (MG_MID) of Log10 GI50 (converted)): 3.24 µM
- LC50 ([18]; Homo sapiens, log of concentration leading to 50% net cell death, read-out: mean graph midpoint (MG_MID) of Log10 LC50 (converted)): ≥ 100 µM
- mean graph midpoint (MG_MID) of Log10 TGI ([18]; log of concentration resulting in total inhibition of net cell growth): 4.68
- mean graph midpoint (MG_MID) of Log10 LC50 ([19]; CNS panel, log of concentration leading to 50% net cell death): 5.13
- GI50 ([19]; CNS panel, log of concentration in mol/L causing 50% inhibition of net cell growth, read-out: mean graph midpoint (MG_MID) of Log10 GI50 (converted)): 1.86 µM
- GI50 ([19]; six CNS cancer cell lines, exposure at least 48 hrs, read-out: GI50, range over the panel): 0.63 to 4.47 µM
- GI50 ([20]; Breast panel, log of concentration in mol/L causing 50% inhibition of net cell growth, read-out: mean graph midpoint (MG_MID) of Log10 GI50 (converted)): 1.58 µM
- LC50 ([20]; Breast panel, log of concentration leading to 50% net cell death, read-out: mean graph midpoint (MG_MID) of Log10 LC50 (converted)): 38 µM
- GI50 ([20]; five breast cancer cell lines, exposure at least 48 hrs, read-out: GI50, range over the panel): 0.31 to 3.41 µM
- GI50 ([21]; Melanoma panel, log of concentration in mol/L causing 50% inhibition of net cell growth, read-out: mean graph midpoint (MG_MID) of Log10 GI50 (converted)): 1.32 µM
- GI50 ([21]; nine melanoma cancer cell lines, exposure at least 48 hrs, read-out: GI50, range over the panel): 0.48 to 2.06 µM
- mean graph midpoint (MG_MID) of Log10 LC50 ([21]; Melanoma panel, log of concentration leading to 50% net cell death): 5.02
- GI50 ([22]; Ovarian panel, log of concentration in mol/L causing 50% inhibition of net cell growth, read-out: mean graph midpoint (MG_MID) of Log10 GI50 (converted)): 1.74 µM
- LC50 ([22]; Ovarian panel, log of concentration leading to 50% net cell death, read-out: mean graph midpoint (MG_MID) of Log10 LC50 (converted)): 42.7 µM
- GI50 ([22]; six ovarian cancer cell lines, exposure at least 48 hrs, read-out: GI50, range over the panel): 1.1 to 3.27 µM
- GI50 ([23]; Leukemia panel, log of concentration in mol/L causing 50% inhibition of net cell growth, read-out: mean graph midpoint (MG_MID) of Log10 GI50 (converted)): 0.562 µM
- LC50 ([23]; Leukemia panel, log of concentration leading to 50% net cell death, read-out: mean graph midpoint (MG_MID) of Log10 LC50 (converted)): ≥ 100 µM
- GI50 ([23]; two leukemia cancer cell lines (RPMI-8226 and K-562), exposure at least 48 hrs, read-out: GI50, range over the panel): 0.5 to 0.62 µM
- GI50 ([24]; Renal panel, log of concentration in mol/L causing 50% inhibition of net cell growth, read-out: mean graph midpoint (MG_MID) of Log10 GI50 (converted)): 1.91 µM
- LC50 ([24]; Renal panel, log of concentration leading to 50% net cell death, read-out: mean graph midpoint (MG_MID) of Log10 LC50 (converted)): 17 µM
- GI50 ([24]; eight renal cancer cell lines, exposure at least 48 hrs, read-out: GI50, range over the panel): 1.38 to 3.02 µM
- GI50 ([25]; Non-small cell lung panel, log of concentration in mol/L causing 50% inhibition of net cell growth, read-out: mean graph midpoint (MG_MID) of Log10 GI50 (converted)): 3.09 µM
- LC50 ([25]; Non-small cell lung panel, log of concentration leading to 50% net cell death, read-out: mean graph midpoint (MG_MID) of Log10 LC50 (converted)): 32.4 µM
- GI50 ([25]; nine non-small cell lung cancer cell lines, exposure at least 48 hrs, read-out: GI50, range over the panel): 0.95 to 14.6 µM
- mean graph midpoint (MG_MID) of Log10 LC50 ([26]; Colon panel, log of concentration leading to 50% net cell death): 5.23
- GI50 ([26]; Colon panel, log of concentration in mol/L causing 50% inhibition of net cell growth, read-out: mean graph midpoint (MG_MID) of Log10 GI50 (converted)): 0.832 µM
- GI50 ([26]; seven colon cancer cell lines, exposure at least 48 hrs, read-out: GI50, range over the panel): 0.33 to 1.51 µM
